Measured values from PMC5247774 (Bioconjugate Chemistry, 2016).

Biological target: T1, SERPINB3 (SB3) (Homo sapiens, UniProt P29508)
T1 sequence (P29508 1-390): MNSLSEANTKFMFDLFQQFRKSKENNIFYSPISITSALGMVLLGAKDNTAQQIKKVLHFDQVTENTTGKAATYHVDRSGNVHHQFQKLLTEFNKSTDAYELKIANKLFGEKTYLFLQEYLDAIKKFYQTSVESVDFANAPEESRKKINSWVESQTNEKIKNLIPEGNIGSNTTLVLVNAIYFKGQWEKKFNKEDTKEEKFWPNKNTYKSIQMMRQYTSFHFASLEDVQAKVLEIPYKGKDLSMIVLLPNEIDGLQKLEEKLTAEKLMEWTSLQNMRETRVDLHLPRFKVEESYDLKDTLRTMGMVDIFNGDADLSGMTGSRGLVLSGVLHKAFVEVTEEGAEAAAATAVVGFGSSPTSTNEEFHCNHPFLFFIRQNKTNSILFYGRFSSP
Format: binding
Settings: SPR, increasing concentrations

interaction with SB3 (in words): did not reveal any interaction
Sequence: CPNFDWDPNNSNAGFAPDLQHDPFFGLP [CysPreS1]
